Test results published in patent US12129221B2, “Difluoro phenyl amide RIP1 inhibitor” (SIRONAX LTD, priority 2018, dated 2024).
Entries after “also recorded” stand apart in the source; their conditions may differ. Read-outs that look alike come from different tables or passages of the source.

What was measured:
[1] = PK in mouse; settings: in vivo
[2] = system: TNF-α-induced SIRS in mice; assay: Mouse SIRS model (TNF-α-induced mortality); assay type: in vivo, C57BI/6J mice; settings: TNF-α intravenously 2 minutes after
Description: Effect on Mouse SIRS Model Sepsis preceded by systemic inflammatory response syndrome (SIRS), is a major cause of death in critically ill patients. TNF-α functions as a key mediator in SIRS pathogenesis by the induction of RIP1-RIP3 mediated necroptosis of the liver.
SIR1-365 was administrated as a single dose by oral gavage at 3 different doses: 1, 3, and 10 mg/kg to C57BI/6J mice. TNF-α was delivered intravenously 2 minutes after SIR1-365 administration. 87.5% (7 of 8) mice in the control group (given vehicle) died within 36 hours, whereas 50% (4 of 8) mice given SIR1-365 at 1 mg/kg and 25% (2 of 8) mice given SIR1-365 at 3 mg/kg died in the same period.

[3] = Liver microsome stability, mouse; assay type: in vitro ADME; settings: liver microsomes
Source text: Representative Metabolic Stability Data I; +, Extrapolated.

[4] = system: necrosis; assay: Necrosis inhibitory activity (cell necrosis / cell viability assay); assay type: cell-based
Source text: Necrosis Inhibitory Activity
Representative IC50 of hRIP1 Kinase Assay Correlated with Our IC50 of Cell Necrosis Assay: […]

SMILES: CCC(C)(C)C(=O)N(O)Cc1cc(F)cc(F)c1 [Compound 13, N-(3,5-difluorobenzyl)-N-hydroxy-2,2-dimethylbutanamide]
- AUC(0-inf) ([1]; IV 2 mg/kg): 489 ng·h/mL
- clearance ([1]; IV 2 mg/kg): 68.2 mL/min/kg
- half-life ([1]; IV 2 mg/kg): 17.4 min
- Vd ([1]; IV 2 mg/kg, read-out: Vdss): 1.7 L/kg
- AUC(0-inf) ([1]; PO 10 mg/kg): 823 ng·h/mL
- Cmax ([1]; PO 10 mg/kg): 1000 ng/mL
- bioavailability ([1]; PO 10 mg/kg): 33.7%
- half-life ([1]; PO 10 mg/kg): 28.8 min
- AUC(0-inf) ([1]; PO 40 mg/kg): 5410 ng·h/mL
- Cmax ([1]; PO 40 mg/kg): 5420 ng/mL
- bioavailability ([1]; PO 40 mg/kg): 55.4%
- half-life ([1]; PO 40 mg/kg): 49.8 min
- mice died within 36 hours ([2]; single oral gavage dose 1 mg/kg): 50%
- mice died within 36 hours ([2]; single oral gavage dose 3 mg/kg): 25%
- mortality caused by SIRS ([2]; single oral gavage dose 10 mg/kg, listed as SIR1-365): completely prevented mortality; also recorded: complete prevention
- half-life ([3]; comparison table with WO2016/101885 compounds, read-out: Mouse Liver Microsome T1/2): 17 min
- half-life ([3]; liver microsome stability, read-out: Mouse T1/2): 17.1 min
- EC50 ([4]; Necrosis Inhibitory Activity, given as range, read-out: EC50): 1 to 1000 nM
- EC50 ([4]; cell necrosis assay, given as bound or range, read-out: Cell viability assay, EC50): < 100 nM
